Experimental findings from ChEMBL document CHEMBL1127173, “EPSP synthase inhibitor deisgn III. Synthesis & evaluation of a new 5-oxamic acid analog of EPSP which incorporates a malonate ether as a 3-phosphate mimic” (Bioorg Med Chem Lett, 1993) are described below.

This test concerns the target T1, 3-phosphoshikimate 1-carboxyvinyltransferase (Escherichia coli K-12, UniProt P0A6D3).
T1 sequence (P0A6D3 whole entry): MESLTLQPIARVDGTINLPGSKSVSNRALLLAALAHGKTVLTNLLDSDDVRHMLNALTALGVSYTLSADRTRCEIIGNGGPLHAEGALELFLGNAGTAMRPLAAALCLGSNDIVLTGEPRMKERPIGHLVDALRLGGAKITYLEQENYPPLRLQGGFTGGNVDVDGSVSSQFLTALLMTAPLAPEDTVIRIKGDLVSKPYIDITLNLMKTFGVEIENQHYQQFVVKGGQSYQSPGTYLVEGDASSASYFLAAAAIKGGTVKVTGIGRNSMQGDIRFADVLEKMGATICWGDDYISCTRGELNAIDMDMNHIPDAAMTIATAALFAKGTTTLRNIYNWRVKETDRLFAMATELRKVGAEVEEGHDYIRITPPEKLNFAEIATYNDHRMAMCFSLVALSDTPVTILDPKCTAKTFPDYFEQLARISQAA
The test can be described thus: The compound was tested for the inhibition of Escherichia coli 5-enolpyruvyl-shikimate-3-phosphate synthase (EPSP).

For the molecule `N[C@@H]1CC(C(=O)O)=C[C@@H](OP(=O)(O)O)[C@H]1O`, affinity was put at a Ki of 90 µM.
Same read-out and setting: the value for `O=C(O)CO[C@@H]1CC(C(=O)O)=C[C@@H](OP(=O)(O)O)[C@H]1O` was 1.5 µM.
As for `O=C(O)C(=O)N[C@@H]1CC(C(=O)O)=C[C@@H](O)[C@H]1O`, the half-inhibitory concentration (IC50) (usually the concentration that gives 50% inhibition) is more than 10000 µM.
On to `O=C(O)C(=O)N[C@@H]1CC(C(=O)O)=C[C@@H](OC(C(=O)O)C(=O)O)[C@H]1O`, for which the affinity, expressed as Ki, was 5.2 µM.
